Reference: patent publication US12097276B2, “Cosmetic composition comprising theasinensin A” (AMOREPACIFIC CORPORATION, priority 2018, dated 2024)

Columns and labels:
[1] = system: matrix metalloproteinase-1 (MMP-1) expression in UVB-irradiated HS68 cells; test: Inhibition of MMP-1 expression in UVB-irradiated HS68 cells (ELISA); type: cell-based, human; details: 48 hours
Description: For investigation of the effect of reducing skin wrinkles and enhancing skin elasticity of theasinensin A, the effect of inhibiting the expression of matrix metalloproteinase-1 (MMP-1), which is a collagenase in the human body, was tested as follows.
First, a cell culture was prepared by treating UVB-irradiated HS68 cells (ATCC, Cat No CRL-1635) with the theasinensin A prepared in Preparation Example at 2.5, 5 or 10 ppm. After culturing HS68 cells (ATCC, Cat No CRL-1635) in a separate medium and adding phosphate-buffered saline (PBS) thereto after removing the medium, UVB was irradiated with an intensity of 30 mJ/cm^2. The UVB-irradiated cells were treated with the previously prepared theasinensin A-treated culture and cultured for 48 hours in an incubator. After recovering the culture, MMP-1 expression level was measured using a MMP-1 ELISA kit (Amersham, RPN2610).

[2] = Stability of the active ingredient in solubilized formulations (remaining titer by HPLC); type: physicochemical; details: stored at 25° C.
Description: The following experiment was conducted to investigate the stability of theasinensin A as an active ingredient.
First, a solubilized formulation comprising the theasinensin A prepared in Preparation Example (Example 1) and a solubilized formulation comprising EGCG (Comparative Example 1) were prepared with the following compositions.
Then, the titer of theasinensin A or EGCG remaining in the formulations of Example 1 and Comparative Example 1 was analyzed by high-performance liquid chromatography (HPLC) with 1-week intervals. Specifically, after storing 10 mL of each composition of Example 1 and Comparative Example 1 at 25° C. and sonicating the same with 1-week intervals after diluting 10 fold with methanol followed by filtering, the content was analyzed by HPLC.

[3] = system: melanin production in B16 cells; test: Inhibition of intra/extracellular melanin production in α-MSH-treated B16 cells; type: cell-based; details: 72 hours; for extracellular melanin content compared to the control group treated only with α-MSH / intracellular melanin content compared to the control group treated only with α-MSH: B16 cells, 200 nM α-MSH, 2.5, 5 or 10 ppm
Description: For investigation of the skin-brightening effect of theasinensin A, the effect of inhibiting intra/extracellular melanin production was tested as follows.
First, after treating B16 cells (ATCC, Cat No CRL-6475) with 200 nM of α-melanocyte-stimulating hormone (α-MSH) and with theasinensin A as an example of the present disclosure or EGCG as a comparative example at nontoxic concentrations of 10 ppm or lower (2.5, 5 or 10 ppm), the intracellular and extracellular melanin contents 72 hours after the treatment were measured by correcting to the protein contents, and represented as % of melanin contents with respect to a non-theasinensin A-treated control group.
The intracellular melanin content is shown in FIG. 5 (TSA) and FIG. 6 (EGCG), and the extracellular melanin content is shown in FIG. 7 (TSA) and FIG. 8 (EGCG).

[4] = DPPH radical-scavenging assay (antioxidant effect); details: 100 μM DPPH in ethanol, 37° C., 30 minutes
Description: For investigation of the antioxidant effect of theasinensin A, the effect of inhibiting 2,2-diphenyl-1-picrylhydrazyl (DPPH) was tested as follows.
The 2,2-diphenyl-1-picrylhydrazyl (DPPH, Sigma D9132) radical dissolved in an organic solvent has the maximum absorbance at 515 nm. Since an antioxidant substance scavenges the DPPH radical and turns it colorless, antioxidant effect can be compared by measuring the DPPH radical-scavenging activity of theasinensin A through DPPH assay.
First, theasinensin A (TSA) was dissolved in ethanol such that the concentration of the theasinensin A (TSA) was 0.3125, 0.625, 1.25, 2.5, 5 and 10 ppm, respectively. The solutions of different concentrations were added to a 96-well plate, 10 μL each. Then, after adding 190 μL of 100 μM DPPH completely dissolved in ethanol to each solution and storing at 37° C. for 30 minutes, absorbance was measured at 515 nm.
DPPH assay was conducted in the same manner for 0.625, 1.25, 2.5, 5 and 10 ppm of vitamin C (Vit.C) as positive control groups and a negative control group (N.T.) not treated with theasinensin A (TSA) or vitamin C (Vit.C).

[5] = about 4 weeks later, solubilized formulation with 0.02 wt % active (Example 1 / Comparative Example 1)

amount of active ingredient remaining in the solubilized formulation (of total amount used) [2, 5] | IC50 of DPPH activity inhibition ([4]; absorbance at 515 nm) [ppm] | amount of active ingredient remaining in the solubilized formulation (of total amount used) ([2]; 1 week later, solubilized formulation with 0.02 wt % active (Comparative Example 1)) | Structure (SMILES) | inhibition of MMP-1 expression ([1]; UVB-irradiated (30 mJ/cm^2) HS68 cells, 2.5, 5 or 10 ppm, concentration-dependent) [%] | concentration at which MMP-1 expression level was inhibited significantly ([1]; UVB-irradiated HS68 cells) [ppm] | extracellular melanin content compared to the control group treated only with α-MSH [3] | intracellular melanin content compared to the control group treated only with α-MSH [3] | inhibition at 10 ppm ([3]; Mus musculus, 10 ppm, B16 cells with 200 nM α-MSH) [%] | concentration at which DPPH activity was inhibited significantly [4] [ppm]
≥ 87 wt % | 5.9 |  | O=C(O[C@@H]1Cc2c(O)cc(O)cc2O[C@@H]1c1cc(O)c(O)c(O)c1-c1c([C@H]2Oc3cc(O)cc(O)c3C[C@H]2OC(=O)c2cc(O)c(O)c(O)c2)cc(O)c(O)c1O)c1cc(O)c(O)c(O)c1 [theasinensin A] | ≥ 50 | ≥ 2.5 | decreased melanin content | decreased melanin content | ~30 | ≥ 0.3
less than 40 wt % |  | less than 80 wt % | O=C(O[C@@H]1Cc2c(O)cc(O)cc2O[C@@H]1c1cc(O)c(O)c(O)c1)c1cc(O)c(O)c(O)c1 [EGCG, epigallocatechin gallate, reference compound] |  |  | increased | increased |  | 
